“And” between values parts separate entries of the source, which are not always exact repeats. Equal values may be shown once.
Experiments:
PC3-mice = assay: Organ clearance biological half-lives from biodistribution data; type: in vivo, mouse; settings: PC3-mice, One-Phase Decay Model
Experimental: Blood samples were collected from the facial vein at 1, 3, 5, 7, 10, 15, 20, 30, 45, 60, 240, and 1440 min p.i., weighed, and measured for radioactivity using a γ-counter. Results were expressed as % I.A./g of blood and plotted over time. The initial and terminal half-lives were determined using Two-Phase Decay Model. The biological half-lives of selected organs were calculated from the biodistribution data using One-Phase Decay Model (GraphPad Prism 8).

[1] = Extrapolated human dosimetry (OLINDA/EXM, ICRP-89 phantoms); parameters: TIAC average pancreas: unit not given beside the values; TIAC average stomach / TIAC average Small Intestine / TIAC average Left Column / TIAC average Rectum / TIAC average adrenal / TIAC average bone / TIAC average Red marrow / TIAC average salivary glands / TIAC average ROB / TIAC average Total Frac IA / TIAC average heart content / TIAC average heart wall / TIAC average liver / TIAC average spleen / TIAC average lung / TIAC average kidney: unit not given here
Experimental: To address inter-animal variability, the TIACs for each source organ were calculated from both the mean nTACs and the nTACs obtainend from fitting the mean ± 1 standard deviation (SD) of the normalized time-activity data, providing upper and lower bounds.
The mice-to-human TIAC extrapolation accounted for species-specific differences in relative source organ masses, m(organ), as compared to the total body weight (WB), for the mice (m) and human (h) models respectively.
The human organ masses, m(organ)h, were obtained from ICRP-89 adult male and female reference phantoms, while the murine organ masses, m(organ)m, were derived from the standard MOBY mouse model. The extrapolated human TIACs, TIACh were entered in the OLINDA/EXM software to compute the absorbed doses to target organs and the effective dose for adult male, female, and gender-averaged human models. […]
The TIACs, for [177Lu]Lu-DOTAGA.Glu.(FAPI)2 and [177Lu]Lu-DO3A.Glu.(FAPI)2, were determined by time integration of the nTACs. To account for the inter-animal variability, the TIACs for each source organ were calculated using both the mean nTACs and the nTACs obtainend from fitting the mean ±1 standard deviation (SD) of the normalized time-activity data. This approach provided the upper and the lower bounds for the estimated TIACs.
The mice-to-human TIAC extrapolation was obtained considering the different (species-specific) relative source organ masses, m(organ), as compared to the total body weight (WB), for the mice (m) and human (h) models respectively.
The human organ masses, m(organ)h, were obtained from the adult male and female reference models phantoms defined in ICRP-89, while the murine organ masses, m(organ)m, were derived from the standard MOBY mouse model. The extrapolated human TIACs values, TIACh, for each source organ were input into the kinetic module of the OLINDA/EXM software (version 2.1, HERMES Medical Solutions AB, Stockholm, Sweden) to compute the absorbed doses to target organs and the effective dose for adult male, female, and gender-averaged human models. […]

[2] = ICRP 89 Adult Female, extrapolated
[3] = ICRP 89 Adult Male, extrapolated
[4] = human extrapolation, male-female range

With N#C[C@@H]1CC(F)(F)CN1C(=O)CNC(=O)c1ccnc2ccc(OCCCCNC(=O)CC[C@H](NC(=O)CN3CCN(CC(=O)[O-])CCN(CC(=O)[O-])CCN(CC(=O)[O-])CC3)C(=O)NCCCCOc3ccc4nccc(C(=O)NCC(=O)N5CC(F)(F)C[C@H]5C#N)c4c3)cc12.[177Lu+3] [[^177Lu]Lu-DO3A.Glu.(FAPI)2] the “Bone clearance half-life, 95% confidence interval” value (PC3-mice) was 14.85 to 18.53 h, the “Kidney clearance half-life, 95% confidence interval” value (PC3-mice) was 18.73 to 31.89 h and the “Liver clearance half-life, 95% confidence interval” value (PC3-mice) was 51.46 to 92.13 h. The “Pancreas clearance half-life, 95% confidence interval” value (PC3-mice) was 12.66 to 19.50 h, the “Salivary glands clearance half-life, 95% confidence interval” value (PC3-mice) was 13.95 to 20.7 h and the “Tumor clearance half-life, 95% confidence interval” value (PC3-mice) was 17.58 to 22.85 h. For the same molecule, the “Absorbed dose (AD average) Adrenals” value [1, 2] was 9.96E-03 mGy/Mbq, the “Absorbed dose (AD average) Brain” value [1, 2] was 2.63E-02 mGy/Mbq and the “Absorbed dose (AD average) Breasts” value [1, 2] was 2.57E-02 mGy/Mbq. The “Absorbed dose (AD average) Esophagus” value [1, 2] was 2.66E-02 mGy/Mbq, the “Absorbed dose (AD average) Eyes” value [1, 2] was 2.63E-02 mGy/Mbq and the “Absorbed dose (AD average) Gallbladder Wall” value [1, 2] was 2.80E-02 mGy/Mbq. The “Absorbed dose (AD average) Heart Wall” value [1, 2] was 2.49E-02 mGy/Mbq, the “Absorbed dose (AD average) Kidneys” value [1, 2] was 2.54E-02 ± 0.001 mGy/Mbq and 2.54E-02 mGy/Mbq and the “Absorbed dose (AD average) Left colon” value [1, 2] was 6.93E-02 mGy/Mbq. The “Absorbed dose (AD average) Liver” value [1, 2] was 7.30E-02 ± 0.003 mGy/Mbq and 7.30E-02 mGy/Mbq, the “Absorbed dose (AD average) Lungs” value [1, 2] was 4.16E-02 ± 0.01 mGy/Mbq and 4.16E-02 mGy/Mbq and the “Absorbed dose (AD average) Osteogenic Cells” value [1, 2] was 6.24E-02 ± 0.002 mGy/Mbq and 6.24E-02 mGy/Mbq. The “Absorbed dose (AD average) Ovaries” value [1, 2] was 2.76E-02 mGy/Mbq, the “Absorbed dose (AD average) Pancreas” value [1, 2] was 2.62E-02 ± 0.001 mGy/Mbq and 2.62E-02 mGy/Mbq and the “Absorbed dose (AD average) Rectum” value [1, 2] was 7.09E-02 mGy/Mbq. The “Absorbed dose (AD average) Red Marrow” value [1, 2] was 3.06E-02 ± 0.001 mGy/Mbq and 3.06E-02 mGy/Mbq, the “Absorbed dose (AD average) Right colon” value [1, 2] was 4.88E-02 mGy/Mbq and the “Absorbed dose (AD average) Salivary Glands” value [1, 2] was 8.81E-02 ± 0.01 mGy/Mbq and 8.81E-02 mGy/Mbq. The “Absorbed dose (AD average) Small Intestine” value [1, 2] was 4.29E-02 ± 0.003 mGy/Mbq and 4.29E-02 mGy/Mbq, the “Absorbed dose (AD average) Spleen” value [1, 2] was 6.42E-02 ± 0.003 mGy/Mbq and 6.42E-02 mGy/Mbq and the “Absorbed dose (AD average) Stomach Wall” value [1, 2] was 3.65E-02 mGy/Mbq. For the same molecule, the “Absorbed dose (AD average) Thymus” value [1, 2] was 2.70E-02 mGy/Mbq, the “Absorbed dose (AD average) Thyroid” value [1, 2] was 2.64E-02 mGy/Mbq and the “Absorbed dose (AD average) Total Body” value [1, 2] was 3.44E-02 ± 0.002 mGy/Mbq and 3.44E-02 mGy/Mbq. The “Absorbed dose (AD average) Urinary Bladder Wall” value [1, 2] was 2.73E-02 mGy/Mbq, the “Absorbed dose (AD average) Uterus” value [1, 2] was 2.76E-02 mGy/Mbq and the “Effective dose (average)” value [1, 2] was 3.49E-02. For the same molecule, the “Absorbed dose (AD average) Adrenals” value [1, 3] was 7.77E-03 mGy/Mbq, the “Absorbed dose (AD average) Brain” value [1, 3] was 2.00E-02 mGy/Mbq and the “Absorbed dose (AD average) Esophagus” value [1, 3] was 2.06E-02 mGy/Mbq. The “Absorbed dose (AD average) Eyes” value [1, 3] was 2.00E-02 mGy/Mbq, the “Absorbed dose (AD average) Gallbladder Wall” value [1, 3] was 2.20E-02 mGy/Mbq and the “Absorbed dose (AD average) Heart Wall” value [1, 3] was 2.04E-02 mGy/Mbq. For the same molecule, the “Absorbed dose (AD average) Kidneys” value [1, 3] was 2.09E-02 ± 0.001 mGy/Mbq and 2.09E-02 mGy/Mbq, the “Absorbed dose (AD average) Left colon” value [1, 3] was 5.77E-02 mGy/Mbq and the “Absorbed dose (AD average) Liver” value [1, 3] was 6.00E-02 ± 0.002 mGy/Mbq and 6.00E-02 mGy/Mbq. The “Absorbed dose (AD average) Lungs” value [1, 3] was 3.40E-02 ± 0.01 mGy/Mbq and 3.40E-02 mGy/Mbq, the “Absorbed dose (AD average) Osteogenic Cells” value [1, 3] was 6.64E-02 ± 0.002 mGy/Mbq and 6.64E-02 mGy/Mbq and the “Absorbed dose (AD average) Pancreas” value [1, 3] was 2.12E-02 ± 0.001 mGy/Mbq and 2.12E-02 mGy/Mbq. For the same molecule, the “Absorbed dose (AD average) Prostate” value [1, 3] was 2.07E-02 mGy/Mbq, the “Absorbed dose (AD average) Rectum” value [1, 3] was 5.76E-02 mGy/Mbq and the “Absorbed dose (AD average) Red Marrow” value [1, 3] was 2.43E-02 ± 0.001 mGy/Mbq and 2.43E-02 mGy/Mbq. The “Absorbed dose (AD average) Right colon” value [1, 3] was 3.94E-02 mGy/Mbq, the “Absorbed dose (AD average) Salivary Glands” value [1, 3] was 7.27E-02 ± 0.01 mGy/Mbq and 7.27E-02 mGy/Mbq and the “Absorbed dose (AD average) Small Intestine” value [1, 3] was 3.27E-02 ± 0.002 mGy/Mbq and 3.27E-02 mGy/Mbq. The “Absorbed dose (AD average) Spleen” value [1, 3] was 5.27E-02 ± 0.002 mGy/Mbq and 5.27E-02 mGy/Mbq, the “Absorbed dose (AD average) Stomach Wall” value [1, 3] was 2.83E-02 mGy/Mbq and the “Absorbed dose (AD average) Testes” value [1, 3] was 2.00E-02 mGy/Mbq. For the same molecule, the “Absorbed dose (AD average) Thymus” value [1, 3] was 2.03E-02 mGy/Mbq, the “Absorbed dose (AD average) Thyroid” value [1, 3] was 2.04E-02 mGy/Mbq and the “Absorbed dose (AD average) Total Body” value [1, 3] was 2.71E-02 ± 0.001 mGy/Mbq and 2.71E-02 mGy/Mbq. The “Absorbed dose (AD average) Urinary Bladder Wall” value [1, 3] was 2.07E-02 mGy/Mbq, the “Effective dose (average)” value ([1]; ICRP 89 Adult Male, extrapolated, in mSv/MBq (unit assumed)) was 2.56E-02 and the absorbed dose kidneys [1, 4] was 0.02–0.03 Gy/GBq. The absorbed dose liver [1, 4] was 0.06–0.07 Gy/GBq, the “absorbed dose salivary glands” value [1, 4] was 0.07–0.09 Gy/GBq and the “total body and effective doses” value [1, 4] was 0.027–0.034 Gy/GBq. For the same molecule, the “TIAC average Left Column” value ([1]; human female, extrapolated) was 0.0781, the “TIAC average ROB” value ([1]; human female, extrapolated) was 16.8035 and the “TIAC average Rectum” value ([1]; human female, extrapolated) was 0.0808. The “TIAC average Red marrow” value ([1]; human female, extrapolated) was 0.2208, the “TIAC average Small Intestine” value ([1]; human female, extrapolated) was 0.1025 and the “TIAC average Total Frac IA” value ([1]; human female, extrapolated) was 21.2881. The TIAC average adrenal ([1]; human female, extrapolated) was 0.0008, the TIAC average bone ([1]; human female, extrapolated) was 2.8185 and the “TIAC average heart content” value ([1]; human female, extrapolated) was 0.0908. For the same molecule, the “TIAC average heart wall” value ([1]; human female, extrapolated) was 0.0329, the TIAC average kidney ([1]; human female, extrapolated) was 0.0717 and the TIAC average liver ([1]; human female, extrapolated) was 1.1228. The TIAC average lung ([1]; human female, extrapolated) was 0.4313, the TIAC average pancreas ([1]; human female, extrapolated) was 0.0313 and the “TIAC average salivary glands” value ([1]; human female, extrapolated) was 0.0707. For the same molecule, the TIAC average spleen ([1]; human female, extrapolated) was 0.0929, the TIAC average stomach ([1]; human female, extrapolated) was 0.0501 and the “TIAC average Left Column” value ([1]; human male, extrapolated) was 0.0642. For the same molecule, the “TIAC average ROB” value ([1]; human male, extrapolated) was 15.5056, the “TIAC average Rectum” value ([1]; human male, extrapolated) was 0.0642 and the “TIAC average Red marrow” value ([1]; human male, extrapolated) was 0.2359. For the same molecule, the “TIAC average Small Intestine” value ([1]; human male, extrapolated) was 0.0958, the “TIAC average Total Frac IA” value ([1]; human male, extrapolated) was 21.2881 and the TIAC average adrenal ([1]; human male, extrapolated) was 0.0007. For the same molecule, the TIAC average bone ([1]; human male, extrapolated) was 3.1852, the “TIAC average heart content” value ([1]; human male, extrapolated) was 0.1028 and the “TIAC average heart wall” value ([1]; human male, extrapolated) was 0.0357. The TIAC average kidney ([1]; human male, extrapolated) was 0.0664, the TIAC average liver ([1]; human male, extrapolated) was 1.1865 and the TIAC average lung ([1]; human male, extrapolated) was 0.4477. For the same molecule, the TIAC average pancreas ([1]; human male, extrapolated) was 0.0300, the “TIAC average salivary glands” value ([1]; human male, extrapolated) was 0.0706 and the TIAC average spleen ([1]; human male, extrapolated) was 0.0881. The TIAC average stomach ([1]; human male, extrapolated) was 0.0446.
